# Laboratory results published in publication PMC5727045, “Anti-biofilm Properties of Bacterial Di-Rhamnolipids and Their Semi-Synthetic Amide Derivatives” (Frontiers in Microbiology, 2017).
# “Also recorded” adds a separate entry of the source.
# Experiments:
# [1] = tested on: P. aeruginosa DM50; experiment: Biofilm dispersion assay, crystal violet; assay type: cell-based, Pseudomonas aeruginosa; settings: P. aeruginosa DM50, 50 μg mL^-1
# Source text: (§1) Test organisms for the antibacterial assays were obtained from the National Collection of Type Cultures (NCTC) and the American Type Culture Collection (ATCC). P. aeruginosa PAO1 NCTC 10332, S. aureus ATCC 25923 and S. aureus ATCC 43300 (MRSA) and S. marcescens ATCC 27117 were used in this study. One clinical isolate of P. aeruginosa DM50 with high ability to form biofilms and resistance to metronidazole, clindamycin and amoxicillin was also included ([Glisic et al., 2016]). Bacterial strains were grown in Luria Bertani (LB) broth at 37°C on a rotary shaker at 180 rpm.
# (§2) An overnight culture of P. aeruginosa was diluted to 5 × 10^7 cfu mL^-1 in LB and 100 μL was added to the wells in 96-well microtiter plates and incubated for 24 h at 37°C. After removal of the supernatant and two washing steps with PBS adherent cells were treated with different concentrations of rhamnolipids or derivatives for additional 24 h and the biofilms were quantified using CV as described above. Biofilm dispersion assays were performed in six wells and repeated three times.
# [2] = tested on: P. aeruginosa PAO1; experiment: Biofilm dispersion assay, crystal violet; assay type: cell-based, Pseudomonas aeruginosa; settings: for Biofilm biomass (%) remained after biofilm dispersion: P. aeruginosa PAO1, 50 μg mL^-1
# Source text: as §1, §2
# [3] = tested on: P. aeruginosa PAO1; experiment: Inhibition of biofilm formation, crystal violet; assay type: cell-based, Pseudomonas aeruginosa; settings: for Biofilm formation (%): P. aeruginosa PAO1, 50 μg mL^-1
# Source text: as §1
# (§3) Biofilm quantification assays were performed in 96-well microtiter plates using a crystal violet (CV) method to stain adherent cells ([Merritt et al., 2005]). Overnight cultures of bacteria were diluted to 5 × 10^7 cfu mL^-1 in LB and 100 μL was added to the wells in the presence of test compounds or DMSO (0.1%, v/v). Biofilms formed for 24 h at 37°C for P. aeruginosa and S. aureus, or 30°C for S. marcescens were washed and adherent cells stained with CV 0.1% (v/v). BFIC50 (concentration of compound that inhibited biofilm formation by 50%) was determined for each compound.
# The effect of rhamnolipids on P. aeruginosa biofilm formation was examined additionally by introducing 3 h adhesion phase after inoculation with 5 × 10^7 cfu mL^-1 cells. Following adhesion, the supernatant was removed and, after two washing steps with phosphate buffered saline (PBS), test compounds or DMSO were applied and the biofilms were quantified after 24 h using CV. Each biofilm formation assay was performed in six wells and repeated at least three times.
# [4] = tested on: S. marcescens ATCC 27117; experiment: Inhibition of biofilm formation, crystal violet; assay type: cell-based, Serratia marcescens; settings: S. marcescens ATCC 27117, 50 μg mL^-1
# Source text: as §1, §3
# [5] = tested on: S. aureus ATCC 25923; experiment: Biofilm dispersion assay, crystal violet; assay type: cell-based, Staphylococcus aureus; settings: S. aureus ATCC 25923, 50 μg mL^-1
# [6] = tested on: S. marcescens ATCC 27117; experiment: Biofilm dispersion assay, crystal violet; assay type: cell-based, Serratia marcescens; settings: S. marcescens ATCC 27117, 50 μg mL^-1
# Source text: as §1, §2
# [7] = tested on: P. aeruginosa DM50; experiment: Inhibition of biofilm formation, crystal violet; assay type: cell-based, Pseudomonas aeruginosa; settings: P. aeruginosa DM50, 50 μg mL^-1
# Source text: as §1, §3
# [8] = tested on: S. aureus ATCC 25923; experiment: Inhibition of biofilm formation, crystal violet; assay type: cell-based, Staphylococcus aureus; settings: S. aureus ATCC 25923, 50 μg mL^-1
# Source text: as §1, §3
# [9] = tested on: S. aureus MRSA; experiment: Inhibition of biofilm formation, crystal violet; assay type: cell-based, Staphylococcus aureus
# Source text: as §1, §3
# [10] = tested on: S. aureus MRSA; experiment: Biofilm dispersion assay, crystal violet; assay type: cell-based, Staphylococcus aureus
# [11] = tested on: MRC5 human lung fibroblasts; experiment: Cytotoxicity assay, MTT; assay type: cell-based; settings: concentrations up to 100 μg mL^-1, MTT, 48 h
# Method: MRC5 human lung fibroblasts were obtained from the ATCC. Cells were maintained as monolayer cultures in RPMI-1640 supplemented with 100 mg L^-1 streptomycin, 100 U mL^-1 penicillin and 10% (v/v) FBS (all from Sigma, Munich, Germany). Cells were grown in a humidified atmosphere of 95% air and 5% CO2 at 37°C.
# Cytotoxicity on MRC5 cells was evaluated with 3-(4,5-dimethylthiazol-2-yl)-2,5-diphenyltetrazolium bromide (MTT). The assay was carried out after 48 h of cell incubation in the media containing test compounds at different concentrations and the viability was measured as described ([Mihajlovic et al., 2012]). The results are presented as the percentage of the control (untreated cells) that was arbitrarily set to 100%.
# [12] = tested on: S. marcescens ATCC 27117; experiment: MIC, broth microdilution, planktonic cells; assay type: cell-based; settings: Serratia marcescens, ATCC27117; S. marcescens ATCC 27117, 24 h incubation
# Source text: as §1
# (§4) The minimum inhibitory concentration (MIC) of rhamnolipids and their derivatives were determined according to standard broth microdilution assays recommended by the National Committee for Clinical Laboratory Standards (M07-A8).
# (§5) Stock solutions of rhamnolipids and derivatives were prepared in DMSO (50 g L^-1, w/v). The highest concentration used was 500 mg L^-1. The inoculums were 10^5 colony forming units (cfu) mL^-1.
# [13] = tested on: S. aureus ATCC 25923; experiment: MIC, broth microdilution, planktonic cells; assay type: cell-based; settings: Staphylococcus aureus, ATCC25923, 24 h, S. aureus ATCC 25923, 24 h incubation
# Source text: as §1, §4, §5
# [14] = tested on: S. aureus MRSA; experiment: MIC, broth microdilution, planktonic cells; assay type: cell-based; settings: Staphylococcus aureus, 24 h, 24 h incubation
# Source text: as §1, §4, §5
# [15] = tested on: P. aeruginosa DM50; experiment: MIC, broth microdilution, planktonic cells; assay type: cell-based; settings: Pseudomonas aeruginosa; P. aeruginosa DM50, 24 h incubation
# Source text: as §1, §4, §5
# [16] = tested on: P. aeruginosa PAO1; experiment: MIC, broth microdilution, planktonic cells; assay type: cell-based; settings: Pseudomonas aeruginosa; P. aeruginosa PAO1, 24 h incubation
# Source text: as §1, §4, §5
# [17] = tested on: P. aeruginosa PAO1-GFP; experiment: Anti-adhesion assay, GFP fluorescence; assay type: cell-based, Pseudomonas aeruginosa; settings: 2 h
# Method: Anti-adhesion assay was performed as previously described ([Shetye et al., 2014]) with some modifications. An overnight culture of P. aeruginosa PAO1 containing pBBR2-GFP ([da Silva et al., 2014]) was subcultured (initial OD600 = 0.02) in M9+/LB (95:5) containing gentamycin (80 mg L^-1), tetracycline (20 mg L^-1), and chloramphenicol (50 mg L^-1) at 37°C in a rotary shaker (200 rpm). After reaching OD600 = 0.1, aliquots (200 μL) were transferred to the wells of black polystyrene microtiter plate with rhamnolipids, derivatives or DMSO (control). After incubation at 37°C for 2 h, bacterial cultures were discarded, and the fluorescence of adherent cells was measured after addition of fresh M9+/LB (95:5) medium using Tecan Infinite 200 Microplate reader (Tecan Group Ltd., Switzerland, lex = 500 nm, lem = 540 nm). Background signal (M9+/LB (95:5) was subtracted from all the samples. Assays were repeated three times; inhibition values are the averages of six replicate wells from one experiment.
# [18] = listed as Rha-TBDMS (Lysinibacillus sp. BV152.1)
# [19] = 50 μg mL^-1, listed as Rha-TBDMS (Lysinibacillus sp. BV152.1)
Structure (SMILES),Viability of human lung fibroblasts (MRC5) [11],Biofilm biomass (%) remained after biofilm dispersion [1] [%],Biofilm biomass (%) remained after biofilm dispersion [2] [%],Biofilm formation (%) [3] [%],Biofilm formation (%) [4] [%],Biofilm biomass (%) remained after biofilm dispersion [5] [%],Biofilm biomass (%) remained after biofilm dispersion [6] [%],MIC [12] [µg/mL],MIC [13] [µg/mL],MIC [14] [µg/mL],MIC [15] [µg/mL],MIC [16] [µg/mL],Biofilm formation (%) [7] [%],Biofilm formation (%) [8] [%],Biofilm formation (%) ([9]; 50 μg mL^-1),Biofilm biomass (%) remained after biofilm dispersion ([10]; 50 μg mL^-1) [%],further results
CCCCCCCC(CC(=O)O)OC(=O)CC(CCCCCCC)O[C@@H]1O[C@@H](C)[C@H](O[Si](C)(C)C(C)(C)C)[C@@H](O[Si](C)(C)C(C)(C)C)[C@H]1O[C@@H]1O[C@@H](C)[C@H](O[Si](C)(C)C(C)(C)C)[C@@H](O[Si](C)(C)C(C)(C)C)[C@H]1O[Si](C)(C)C(C)(C)C (some centres unmarked),,,,,,,,,,,,,,,,,"Biofilm biomass (%) remained after biofilm dispersion [1, 18]: 65 ± 1%; Biofilm biomass (%) remained after biofilm dispersion [2, 18]: 80 ± 6%; anti-biofilm formation activity ([3]; P. aeruginosa PAO1): no anti-biofilm formation activity; Biofilm formation (%) [3, 18]: 115 ± 10%; Biofilm formation (%) [4, 18]: 85 ± 1%; Biofilm biomass (%) remained after biofilm dispersion [5, 18]: 110 ± 22%; Biofilm biomass (%) remained after biofilm dispersion [6, 18]: 99 ± 8%; Biofilm formation (%) [7, 18]: 100 ± 8%; Biofilm formation (%) [8, 18]: 88 ± 12%; Biofilm formation (%) [9, 19]: 106 ± 4%; Biofilm biomass (%) remained after biofilm dispersion [10, 19]: 101 ± 14%"
"CCCCCCCC(CC(=O)O)OC(=O)CC(CCCCCCC)O[C@@H]1O[C@@H](C)[C@H](O)[C@@H](O)[C@H]1O[C@@H]1O[C@@H](C)[C@H](O)[C@@H](O)[C@H]1O (stereo partly drawn) [di-Rha, Rha-Rha-C10-C10]",not affected; also recorded: not toxic,135 ± 10,77 ± 3,50 ± 3,20 ± 5,80 ± 9,193 ± 8,> 500,> 500,> 500,> 500,> 500,109 ± 10,37 ± 4,44 ± 11,82 ± 7,"disruption of pre-formed biofilms ([2]; 24 h old P. aeruginosa biofilms, 100 μg mL^-1): up to 20%; effect on biofilm formation when bacteria were left to attach prior to treatment ([3]; P. aeruginosa PAO1, concentrations up to 50 μg mL^-1): stimulated biofilm formation; IC50 ([3]; Pseudomonas aeruginosa, P. aeruginosa PAO1, 24 h, read-out: BFIC50 (concentration of compound that inhibited biofilm formation by 50%)): 75 µg/mL"
CCCCCCCC(CC(=O)O)OC(=O)CC(CCCCCCC)O[C@@H]1O[C@@H](C)[C@H](O[Si](C)(C)C(C)(C)C)[C@@H](O[Si](C)(C)C(C)(C)C)[C@H]1O[C@@H]1O[C@@H](C)[C@H](O[Si](C)(C)C(C)(C)C)[C@@H](O[Si](C)(C)C(C)(C)C)[C@H]1O[Si](C)(C)C(C)(C)C (some centres unmarked) [di-Rha-TBDMS (P. aeruginosa)],not affected,78 ± 10,76 ± 10,95 ± 7,117 ± 4,82 ± 3,155 ± 3,> 500,> 500,> 500,> 500,> 500,73 ± 6,88 ± 10,69 ± 11,120 ± 10,anti-adhesion activity [17]: no significant anti-adhesion activity
